{"source": "patent US20220152174A1", "about": "“Cancer Antigen Peptide” (National University Corporation Asahikawa Medical University, priority 2018, published 2022)", "key": {"CD4-positive T-cells": {"system": "CD4-positive T-cells", "experiment": "IFN-γ ELISPOT after peptide vaccination of HLA transgenic mice", "format": "in vivo, mouse", "conditions": "A2.DR1-Tg mice vaccinated with partial peptides, stimulation 3 μg/mL, 24 hours", "procedure": "HLA-A*02:01/DRB1*01:01 transgenic mice (A2.DR1-Tg mice, […]; Pasteur Institute, France) were intradermally injected with SYCP3-A peptide (synthesized by GenScript) dissolved in 100 μL of PBS using Myjector on Days […]. The mice were euthanized by intraperitoneally administering 200 μL of 500 μg/mL pentobarbital on Day 15. After laparotomy, tumor-draining lymph nodes (dLNs) and spleens were collected and lymphocytes and splenocytes, respectively, were isolated.\nThe lymphocytes (3×10^5 cells) and the splenocytes (5×10^5 cells) were added to ELISPOT plates (EMD Millipore, MAHAS4510), and the cells were co-cultured in the presence of a control peptide (a peptide of 15 amino acid residues having a sequence not included in SYCP3) or SYCP3-A peptide selected in Test 4 (3 μg/mL) in the complete medium at 150 μL/well for […]. In order to detect the cells producing IFN-γ specifically to SYCP3-A peptide, the ELISPOT assay was performed using a mouse IFN-γ ELISpot BASIC (ALP) kit (MABTECH 3321-2A). The procedure was in accordance with the description of the attached package insert. BCIP-NBT-plus substrate for ELISpot (MABTECH 3650-10) was used as a chromogenic substrate, and PBS-T was used for washing at each step. In addition, in order to confirm that the reaction is produced by CD4-positive T-cells, an anti-mouse CD4 antibody (BioLegend 100435) or an anti-mouse CD8 antibody (BioLegend 100735) was added to some cultures at the final concentration of 5 μg/mL.\nAs described above, A2.DR1-Tg mice were vaccinated with these partial peptides, dLNs and spleens were collected from each mouse, lymphocytes and splenocytes were isolated, the cells were stimulated with each partial peptide (3 μg/mL) for 24 hours, and the T-cell responses were determined by ELISPOT. CD4-positive T-cells responded to the partial peptides T2, T3, and T4."}, "[1]": {"system": "SYCP3-A-specific Th cells", "experiment": "IFN-γ ELISA of SYCP3-A peptide-specific Th cells co-cultured with PBMCs", "format": "cell-based, human", "conditions": "for IFN-γ production of SYCP3-A peptide-specific Th cells: peptide 3 μg/mL, Th cells plus PBMCs of same donor", "procedure": "PBMCs were collected from peripheral blood samples of healthy donors by a density gradient separation method using Lymphoprep (Alere Technologies AS 1114547). CD14 positive cells were separated from PBMCs using a magnetic cell separation system (Miltenyi 130-050-201). Differentiation into dendritic cells (DCs) was induced by culturing the cells in the presence of 50 ng/mL GM-CSF (peprotech AF-300-03) and 50 ng/mL IL-4 (peprotech AF-200-04) with 3 mL of a culture medium for human cells in 6-well culture plates (Falcon 353046) for 7 days. The culture medium was AIM-V medium (ThermoFisher SCIENTIFIC 0870112DK) supplemented with 3% of human AB serum (Innovative RESEARCH IPLA-SERAB) inactivated at 56° C. for 30 minutes. Similarly, CD4-positive T-cells were isolated from PBMCs (Miltenyi 130-045-101), and 1×10^5 CD4-positive T-cells were co-cultured with 5×10^4 DCs in the presence of SYCP3-A or SPESP1-B peptide (3 μg/mL) in 96-well flat bottom culture plates (Falcon 353072) at the volume of 200 μL. After 7 days, in order to stimulate the CD4-positive T-cells with the peptide, 100 μL of the culture supernatant was removed from each well, and then SYCP3-A or SPESP1-B peptide (3 μg/mL) and PBMCs (2×10^5) inactivated by gamma-irradiation (40 Gy) were added at the volume of 100 μL. After 2 days, 50 μL of the culture supernatant was removed, and 50 μL of IL-2 (Imunace35, Shionogi) was added at the final concentration of 10 U/mL. For continuous proliferation of the activated CD4-positive T-cells, the cells (1×10^6 cells) were stimulated with SYCP3-A or SPESP1-B peptide and the inactivated PBMCs (1×10^6 cells) every other week and used for the experiments described below.\nIn order to study the HLA-restriction of the CD4-positive T-cells, an anti-DR antibody (BioLegend 307612) or an anti-HLA-class I antibody (BioLegend 311412) as a control was added to some cultures at the final concentration of 5 μg/mL."}, "[2]": {"system": "HLA-DR4, DR8, DR9, DR15, DR53", "experiment": "HLA type restriction of partial DAZL-1 peptides with L-DR cells", "format": "cell-based, human"}, "[3]": {"system": "SYCP3, SPESP1, and DAZL1 gene expression in EBC1, Lu65, and HT-29", "experiment": "Gene expression in cancer cell lines cultured with gemcitabine", "format": "cell-based, human", "conditions": "EBC1, Lu65, HT-29 cultured in the presence of gemcitabine"}, "DAZL1-specific Th cells": {"system": "DAZL1-specific Th cells", "experiment": "IFN-γ ELISA of DAZL-1 peptide-specific Th cells", "format": "cell-based, human", "procedure": "(§1) PBMCs were collected from peripheral blood samples of healthy donors by a density gradient separation method using Lymphoprep (Alere Technologies AS 1114547). CD14 positive cells were separated from PBMCs using a magnetic cell separation system (Miltenyi 130-050-201). Differentiation into dendritic cells (DCs) was induced by culturing the cells in the presence of 50 ng/mL GM-CSF (peprotech AF-300-03) and 50 ng/mL IL-4 (peprotech AF-200-04) with 3 mL of a culture medium for human cells in 6-well culture plates (Falcon 353046) for 7 days. The culture medium was AIM-V medium (ThermoFisher SCIENTIFIC 0870112DK) supplemented with 3% of human AB serum (Innovative RESEARCH IPLA-SERAB) inactivated at 56° C. for 30 minutes. Similarly, CD4-positive T-cells were isolated from PBMCs (Miltenyi 130-045-101), and 1×10^5 CD4-positive T-cells were co-cultured with 5×10^4 DCs in the presence of SYCP3-A or SPESP1-B peptide (3 μg/mL) in 96-well flat bottom culture plates (Falcon 353072) at the volume of 200 μL. […]\nThe IFN-γ concentrations of the culture supernatants were determined in the same manner as in Test 8, except that partial DAZL-1 peptide p11, p12, or p13 was used instead of SYCP3-A peptide. […]"}, "[4]": {"system": "SPESP1-B-specific Th cells", "experiment": "IFN-γ ELISA of SPESP1-B peptide-specific Th cells", "format": "cell-based, human", "procedure": "as §1\nThe IFN-γ concentrations of the culture supernatants were determined in the same manner as in Test 8, except that SPESP1-B peptide was used instead of SYCP3-A peptide. […]"}, "HLA-DR53 [5]": {"target": "T1, HLA-DR53 (Homo sapiens, UniProt P01903+P13762)", "T1 construct": "expressed in transfected cells; host or cells: mouse fibroblast cell line L-DR53", "T1 sequence (P13762 30-266)": "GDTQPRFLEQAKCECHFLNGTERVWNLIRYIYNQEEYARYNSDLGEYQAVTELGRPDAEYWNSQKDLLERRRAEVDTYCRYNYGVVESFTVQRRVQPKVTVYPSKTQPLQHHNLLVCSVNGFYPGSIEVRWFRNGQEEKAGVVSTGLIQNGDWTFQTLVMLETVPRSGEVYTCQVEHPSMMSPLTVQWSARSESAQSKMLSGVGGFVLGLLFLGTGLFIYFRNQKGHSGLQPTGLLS", "T1 sequence (P01903 26-254)": "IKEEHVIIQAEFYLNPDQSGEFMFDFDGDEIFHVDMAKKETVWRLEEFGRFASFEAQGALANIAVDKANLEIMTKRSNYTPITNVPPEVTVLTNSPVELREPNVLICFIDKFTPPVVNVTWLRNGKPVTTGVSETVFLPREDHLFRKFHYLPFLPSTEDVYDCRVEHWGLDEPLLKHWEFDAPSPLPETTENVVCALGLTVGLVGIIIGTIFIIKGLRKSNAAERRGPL", "experiment": "HLA type restriction of SPESP1-B with L-DR53", "format": "cell-based", "procedure": "The IFN-γ concentrations of the culture supernatants were determined in the same manner as in Test 8, except that SPESP1-B peptide was used instead of SYCP3-A peptide. Two SPESP1-B-specific Th cell clones (HK15 and HK18) were established from one healthy donor. The peptide-specific IFN-γ production was suppressed when the anti-HLA-DR antibody (aDR) was added to the clones."}, "helper T-cells": {"system": "helper T-cells", "experiment": "IFN-γ ELISA after DAZL-1C vaccination of Balb/c mice", "format": "in vivo, mouse", "procedure": "Two BALB/cAnNCrlCrlj mice (Balb/c, 10 to 16 weeks old, Charles river) were intradermally injected with 100 μg/50 μL DAZL-1C peptide ([…] (SEQ ID NO: 20): synthesized by GenScript) dissolved in phosphate-buffered saline (PBS, KANTO CHEMICAL CO., INC. 73111) using Myjector (TERUMO SS_05M2913) on Days 0 and 10. The mice were euthanized by intraperitoneally administering 200 μL of 500 μg/mL pentobarbital (nacalai tesque 02095-04) on Day 12. After laparotomy, dLNs and spleens were collected and lymphocytes and splenocytes, respectively, were isolated.\nThe lymphocytes (3×10^5 cells) and the splenocytes (5×10^5 cells) were added to 96-well flat bottom culture plates (Falcon 353072), and the cells were co-cultured in the presence of a control peptide or DAZL-1C peptide (2.5 μg/mL) in the complete medium at 200 μL/well for 24 hours. In order to detect IFN-γ production specific to DAZL-1C peptide, each 100 μL of the culture supernatants after 24 hours were collected, and the IFN-γ concentrations were determined using an ELISA set (BD Biosciences 551866) in accordance with the description of the attached package insert. In order to confirm that the reaction is produced by CD4-positive T-cells, an anti-mouse CD4 antibody (aCD4; BioLegend 100435) or an anti-mouse CD8 antibody (aCD8; BioLegend 100735) was added to some cultures at the final concentration of 5 μg/mL."}, "HLA-DR53 [6]": {"target": "T1, HLA-DR53", "experiment": "HLA type restriction of SYCP3-A with L-DR mouse fibroblast cells", "format": "cell-based", "conditions": "SYCP3-A 3 μg/mL, L-DR53 cells, 24 to 48 hours", "experimental": "(§2) Furthermore, in order to identify the HLA type to which the peptide is restricted, the CD4-positive T-cells (5×10^4 cells) and 3×10^4 cells of a mouse fibroblast cell line having HLA-DR4, DR8, DR9, or DR53 gene (L-DR4, L-DR8, L-DR9, or L-DR53) were co-cultured in the presence of SYCP3-A peptide (3 μg/mL) in 96-well flat bottom culture plates using 200 μL of the culture medium for human cells, and after 24 to 48 hours the IFN-γ concentrations in the culture supernatants were determined as described above."}, "HLA-DR53 [7]": {"system": "HLA-DR53", "experiment": "HLA type restriction of SYCP3-A with L-DR mouse fibroblast cells", "format": "cell-based, human", "conditions": "SYCP3-A 3 μg/mL", "experimental": "as §2"}}}
{"molecule": "KILQQSRIVQSQ (listed as Homo sapiens) [T4]", "values": [{"measurement": "T-cell response of CD4-positive T-cells to partial peptide by ELISPOT", "setting": "CD4-positive T-cells", "value": "responded"}, {"measurement": "IFN-γ production of SYCP3-A peptide-specific Th cells", "setting": "[1]", "value": "Increased IFN-γ production"}]}
{"molecule": "INFHGKKLKLGPAIRKQNLC (listed as Homo sapiens) [p12]", "values": [{"measurement": "HLA type bound to stimulate Th cells", "setting": "[2]", "value": "HLA-DR15"}]}
{"molecule": "Nc1ccn([C@@H]2O[C@H](CO)[C@@H](O)C2(F)F)c(=O)n1", "note": "[gemcitabine]", "values": [{"measurement": "gene expression levels of SYCP3, SPESP1, and DAZL1", "setting": "[3]", "value": "equivalent to those of the controls"}]}
{"molecule": "LGPAIRKQNLCAYHVQPRPL (listed as Homo sapiens) [p13]", "values": [{"measurement": "IFN-γ production with anti-HLA-DQ antibody", "setting": "DAZL1-specific Th cells", "value": "suppressed"}, {"measurement": "HLA type bound to stimulate Th cells", "setting": "[2]", "value": "HLA-DR8"}]}
{"molecule": "QNLNHYIQVLENLVRSVPS (listed as Homo sapiens) [SPESP1-B]", "values": [{"measurement": "peptide-specific IFN-γ production with anti-HLA-DR antibody", "setting": "[4]; clones HK15 and HK18, aDR", "value": "suppressed"}, {"measurement": "IFN-γ production at low concentration", "setting": "[4]; peptide 0.0003 μg/mL (serially diluted 0.0003 to 30 μg/mL)", "value": "sufficient IFN-γ production"}, {"measurement": "HLA type binding and Th cell stimulation", "setting": "HLA-DR53 [5]", "value": "binds to HLA-DR53 and stimulates Th cells"}]}
{"molecule": "DVQKIVESQINFHGKKLKLGPAIRKQNLC (listed as Homo sapiens) [DAZL-1C]", "values": [{"measurement": "ability to activate helper T-cells (peptide-specific IFN-γ production)", "setting": "helper T-cells; Balb/c mice, 100 μg i.d. Days 0 and 10, restimulation 2.5 μg/mL, 24 hours", "value": "activates helper T-cells"}, {"measurement": "IFN-γ production specific to peptide with anti-CD4 antibody", "setting": "helper T-cells; anti-mouse CD4 antibody 5 μg/mL", "value": "inhibited"}]}
{"molecule": "QQQKILQQSRIVQSQRLKT (listed as Homo sapiens) [SYCP3-A]", "values": [{"measurement": "peptide-specific IFN-γ production with anti-HLA-DR antibody", "setting": "[1]; SYCP3-A 3 μg/mL, aDR 5 μg/mL, Th clones from three healthy donors", "value": "suppressed"}, {"measurement": "peptide-specific reaction (IFN-γ) of Th cells to L-DR53 cells", "setting": "HLA-DR53 [6]", "value": "strong peptide-specific reactions"}, {"measurement": "reactivity in samples having no DR53 allele", "setting": "HLA-DR53 [7]", "value": "some reactivity"}]}
{"molecule": "QQKILQQSRIVQ (listed as Homo sapiens) [T2]", "values": [{"measurement": "T-cell response of CD4-positive T-cells to partial peptide by ELISPOT", "setting": "CD4-positive T-cells", "value": "responded"}]}
{"molecule": "DVQKIVESQINFHGKKLKLG (listed as Homo sapiens) [p11]", "values": [{"measurement": "HLA type bound to stimulate Th cells", "setting": "[2]", "value": "HLA-DR4/9/53"}]}
{"molecule": "QKILQQSRIVQS (listed as Homo sapiens) [T3]", "values": [{"measurement": "T-cell response of CD4-positive T-cells to partial peptide by ELISPOT", "setting": "CD4-positive T-cells", "value": "responded"}, {"measurement": "IFN-γ production of SYCP3-A peptide-specific Th cells", "setting": "[1]", "value": "Increased IFN-γ production"}]}
{"molecule": "QQQKILQQSRVVQSQRLKT (listed as Homo sapiens) [SEQ ID NO: 31, 11th isoleucine residue of SYCP3-A peptide substituted with a valine residue]", "values": [{"measurement": "reactivity of SYCP3-A peptide-specific Th cells compared with SYCP3-A", "setting": "[1]; modified or substituted peptide, similarly tested", "value": "not decreased"}]}
